According to ChEMBL document CHEMBL1681756, “Synthesis and evaluation of novel pyrimidine-based dual EGFR/Her-2 inhibitors” (Bioorg Med Chem Lett, 2011):

Legend:
[1] = molecular target: Epidermal growth factor receptor (Homo sapiens, UniProt P00533); assay: Inhibition of EGFR by homogeneous time-resolved fluorescence assay
[2] = molecular target: Receptor tyrosine-protein kinase erbB-2 (Homo sapiens, UniProt P04626); assay: Inhibition of HER2 by homogeneous time-resolved fluorescence assay
[3] = Aqueous solubility of the compound at pH 6.8; assay type: physicochemical
[4] = Lipophilicity log P of the compound; assay type: physicochemical; settings: octanol/water
BT-474 = assay: Antiproliferative activity against human BT474 cells by methylene blue staining method

Epidermal growth factor receptor, sequence (P00533 whole entry): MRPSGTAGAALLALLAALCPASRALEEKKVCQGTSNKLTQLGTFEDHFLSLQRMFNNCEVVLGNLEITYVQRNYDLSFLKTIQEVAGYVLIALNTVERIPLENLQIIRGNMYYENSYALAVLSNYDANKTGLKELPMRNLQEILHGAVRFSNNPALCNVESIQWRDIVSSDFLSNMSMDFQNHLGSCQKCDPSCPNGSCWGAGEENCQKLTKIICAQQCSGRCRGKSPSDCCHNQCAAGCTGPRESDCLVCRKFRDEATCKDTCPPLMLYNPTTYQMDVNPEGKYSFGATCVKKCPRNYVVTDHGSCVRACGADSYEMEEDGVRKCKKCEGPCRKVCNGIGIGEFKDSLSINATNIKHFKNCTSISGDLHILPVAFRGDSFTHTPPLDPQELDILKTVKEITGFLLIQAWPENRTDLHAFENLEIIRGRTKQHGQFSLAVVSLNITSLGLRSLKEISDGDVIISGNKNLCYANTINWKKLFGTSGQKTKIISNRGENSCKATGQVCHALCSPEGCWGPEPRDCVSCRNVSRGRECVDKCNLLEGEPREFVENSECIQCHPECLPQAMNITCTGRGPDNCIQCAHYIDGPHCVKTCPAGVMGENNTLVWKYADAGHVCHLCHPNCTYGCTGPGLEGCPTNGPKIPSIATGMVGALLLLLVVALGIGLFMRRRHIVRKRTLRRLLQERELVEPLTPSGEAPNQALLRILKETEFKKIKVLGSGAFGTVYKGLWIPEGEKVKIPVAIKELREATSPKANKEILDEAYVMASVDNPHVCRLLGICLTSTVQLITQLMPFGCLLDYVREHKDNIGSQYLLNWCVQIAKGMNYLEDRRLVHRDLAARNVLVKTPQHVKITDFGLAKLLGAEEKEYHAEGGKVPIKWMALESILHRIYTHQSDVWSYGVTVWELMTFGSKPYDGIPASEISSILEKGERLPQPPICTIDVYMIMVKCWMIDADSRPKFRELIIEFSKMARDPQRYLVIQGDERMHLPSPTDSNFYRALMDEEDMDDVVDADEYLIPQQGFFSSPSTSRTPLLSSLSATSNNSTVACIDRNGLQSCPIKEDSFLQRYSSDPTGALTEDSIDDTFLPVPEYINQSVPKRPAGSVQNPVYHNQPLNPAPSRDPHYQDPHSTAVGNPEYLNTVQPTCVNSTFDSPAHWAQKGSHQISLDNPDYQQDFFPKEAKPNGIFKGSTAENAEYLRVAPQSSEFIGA
Receptor tyrosine-protein kinase erbB-2, sequence (P04626 whole entry): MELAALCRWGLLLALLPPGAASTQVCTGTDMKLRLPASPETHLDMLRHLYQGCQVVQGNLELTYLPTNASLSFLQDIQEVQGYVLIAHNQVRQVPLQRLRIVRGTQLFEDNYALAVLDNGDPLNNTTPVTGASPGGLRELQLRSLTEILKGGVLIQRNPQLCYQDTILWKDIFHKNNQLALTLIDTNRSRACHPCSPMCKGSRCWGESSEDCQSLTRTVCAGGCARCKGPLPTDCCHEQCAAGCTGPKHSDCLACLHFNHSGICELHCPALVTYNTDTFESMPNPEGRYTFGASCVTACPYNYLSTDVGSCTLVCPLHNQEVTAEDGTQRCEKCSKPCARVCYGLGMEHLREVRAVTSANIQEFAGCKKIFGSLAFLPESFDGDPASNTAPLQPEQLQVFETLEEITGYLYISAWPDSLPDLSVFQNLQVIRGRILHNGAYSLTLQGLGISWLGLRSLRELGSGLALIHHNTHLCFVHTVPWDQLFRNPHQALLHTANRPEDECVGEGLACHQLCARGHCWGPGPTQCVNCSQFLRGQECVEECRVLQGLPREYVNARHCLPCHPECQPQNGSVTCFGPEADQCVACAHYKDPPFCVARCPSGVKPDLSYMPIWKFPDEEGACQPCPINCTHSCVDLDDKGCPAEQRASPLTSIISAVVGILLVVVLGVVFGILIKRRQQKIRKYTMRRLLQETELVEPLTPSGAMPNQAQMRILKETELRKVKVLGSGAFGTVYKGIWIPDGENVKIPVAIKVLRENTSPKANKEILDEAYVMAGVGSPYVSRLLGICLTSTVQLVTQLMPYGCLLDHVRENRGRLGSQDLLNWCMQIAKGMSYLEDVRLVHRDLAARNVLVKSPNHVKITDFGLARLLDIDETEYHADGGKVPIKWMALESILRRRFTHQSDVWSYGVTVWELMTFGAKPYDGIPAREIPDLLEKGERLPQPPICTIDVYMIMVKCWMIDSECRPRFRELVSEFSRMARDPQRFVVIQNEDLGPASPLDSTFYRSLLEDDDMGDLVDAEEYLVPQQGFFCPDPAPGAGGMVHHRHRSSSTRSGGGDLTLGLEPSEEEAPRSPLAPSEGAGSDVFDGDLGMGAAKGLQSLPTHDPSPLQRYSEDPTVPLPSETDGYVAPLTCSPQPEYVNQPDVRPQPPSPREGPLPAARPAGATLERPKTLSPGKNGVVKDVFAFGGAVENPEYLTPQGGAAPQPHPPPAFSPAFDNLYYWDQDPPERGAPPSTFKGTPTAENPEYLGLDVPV

| IC50 [1] | IC50 [2] | solubility ([3]; aqueous, read-out: solubility) | logP [4] | IC50 (BT-474) | solubility ([3]; buffer) | SMILES |
| --- | --- | --- | --- | --- | --- | --- |
| 1100 nM | 6500 nM | – | – | – | – | Cc1cc(Nc2ccc(OCc3cccc(F)c3)c(Cl)c2)ncn1 |
| 1200 nM | 6300 nM | – | – | – | – | Fc1cccc(COc2ccc(Nc3cc(-c4ccccc4)ncn3)cc2Cl)c1 |
| 47000 nM | > 100000 nM | – | – | – | – | Fc1cccc(COc2ccc(Nc3cc(-c4cccnc4)ncn3)cc2Cl)c1 |
| – | 36000 nM | – | – | – | – | Fc1cccc(COc2ccc(Nc3cc(-c4ccsc4)ncn3)cc2Cl)c1 |
| > 100000 nM | > 100000 nM | – | – | – | – | Fc1cccc(COc2ccc(Nc3cc(N4CCCC4)ncn3)cc2Cl)c1 |
| 10000 nM | > 100000 nM | – | – | – | – | Fc1cccc(COc2ccc(Nc3cc(Oc4ccccc4)ncn3)cc2Cl)c1 |
| 17 nM | 140 nM | – | – | – | – | Cc1ncnc(Nc2ccc(OCc3cccc(F)c3)c(Cl)c2)c1C |
| 640 nM | 2900 nM | – | – | – | – | CCc1ncnc(Nc2ccc(OCc3cccc(F)c3)c(Cl)c2)c1C |
| 20000 nM | 65000 nM | – | – | – | – | Cc1c(Nc2ccc(OCc3cccc(F)c3)c(Cl)c2)ncnc1-c1ccccc1 |
| 68 nM | 740 nM | – | – | – | – | Cc1ncnc(Nc2ccc(OCc3cccc(F)c3)c(Cl)c2)c1/C=N/OCCN1CCOCC1 |
| 65 nM | 1800 nM | – | – | – | – | Cc1ncnc(Nc2ccc(OCc3cccc(F)c3)c(Cl)c2)c1/C=N/OCCCN1CCOCC1 |
| 590 nM | 3750 nM | – | – | – | – | Cc1ncnc(Nc2ccc(OCc3cccc(F)c3)c(Cl)c2)c1-c1cccc(CN2CCOCC2)c1 |
| 34 nM | 150 nM | – | – | – | – | Cc1ncnc(Nc2ccc(OCc3cccc(F)c3)c(Cl)c2)c1C#CCCCN1CCOCC1 |
| 240 nM | 440 nM | > 50 µM | 6.96 | 394 nM | – | Cc1ncnc(Nc2ccc(OCc3cccc(F)c3)c(Cl)c2)c1C#Cc1ccc(CN2CCOCC2)cc1 |
| 28 nM | 81 nM | – | – | – | – | C/C(=C\c1c(C)ncnc1Nc1ccc(OCc2cccc(F)c2)c(Cl)c1)C(=O)NCCN1CCOCC1 |
| 120 nM | 190 nM | – | 7.73 | 644 nM | – | Cc1ncnc(Nc2ccc(OCc3cccc(F)c3)c(Cl)c2)c1/C=C/c1ccc(CN2CCOCC2)cc1 |
| – | 78 nM | – | – | – | – | Cc1ncnc(Nc2ccc(OCc3cccc(F)c3)c(Cl)c2)c1/C=C(\F)C(=O)NCCN1CCOCC1 |
| 114 nM | 318 nM | – | – | – | – | Cc1ncnc(Nc2ccc(OCc3cccc(F)c3)c(Cl)c2)c1/C=C/C(=O)NCCN1CCOCC1 |
| 3 nM | 19 nM | > 50 µM | 5.98 | 1130 nM | – | Cc1ncnc(Nc2ccc(OCc3cccc(F)c3)c(Cl)c2)c1/C=C(\F)C(=O)NCCN1CCCC1 |
| 19 nM | 71 nM | – | – | – | – | Cc1ncnc(Nc2ccc(OCc3cccc(F)c3)c(Cl)c2)c1/C=C(\F)C(=O)NCCS(C)(=O)=O |
| 156 nM | 102 nM | – | – | – | – | CCN1CCN(C(=O)/C(F)=C/c2c(C)ncnc2Nc2ccc(OCc3cccc(F)c3)c(Cl)c2)CC1 |
| 13 nM | 74 nM | – | – | – | – | Cc1ncnc(Nc2ccc(OCc3cccc(F)c3)c(Cl)c2)c1C#CCCN1CCOCC1 |
| 4130 nM | 5380 nM | – | – | – | – | Cc1ncnc(Nc2ccc(OCc3cccc(F)c3)c(Cl)c2)c1C#CCN1CCOCC1 |
| 38 nM | 70 nM | – | – | – | – | Cc1ncnc(Nc2ccc(OCc3cccc(F)c3)c(Cl)c2)c1C#C/C=N/OCCN1CCOCC1 |
| – | 95 nM | – | – | – | – | Cc1ncnc(Nc2ccc(OCc3cccc(F)c3)c(Cl)c2)c1C#CCCCN1CCCC1 |
| 9 nM | 36 nM | > 50 µM | 6.23 | 1440 nM | – | CCN1CCN(CCCC#Cc2c(C)ncnc2Nc2ccc(OCc3cccc(F)c3)c(Cl)c2)CC1 |
| 270 nM | 810 nM | – | – | – | – | Cc1ncnc(Nc2ccc(OCc3cccc(F)c3)c(Cl)c2)c1C#CCCNCc1ccccc1 |
| – | – | 2 µM | – | – | – | Cc1ncnc(Nc2ccc(OCc3cccc(F)c3)c(Cl)c2)c1/C=C/c1ccc(CN2CCOCC2)cc1.Cl |
| 920 nM | 25000 nM | – | – | – | – | Fc1cccc(COc2ccc(Nc3ccncn3)cc2Cl)c1 |
| – | – | – | 6.67 | 100 nM | 24 µM | CS(=O)(=O)CCNCc1ccc(-c2ccc3ncnc(Nc4ccc(OCc5cccc(F)c5)c(Cl)c4)c3c2)o1.Cc1ccc(S(=O)(=O)O)cc1.Cc1ccc(S(=O)(=O)O)cc1.O [LAPATINIB DITOSYLATE] |
